Measurements: US7786131B2, “Pyrimido[5,4-d]pyrimidines derivatives as irreversible inhibitors of tyrosine kinases” (Warner-Lambert Company, priority 1996, dated 2010)
Where two headings read alike, the source gives them in different places.

Experiments:
[1] = biological target: T1, EGF receptor autophosphorylation in A431 cells (Homo sapiens, UniProt P00533); assay: Autophosphorylation assay in A431 cells; type: cell-based
T1 construct: A431 human epidermoid carcinoma cells were grown in 6-well plates; endogenous in cells; host or cells: A431 human epidermoid carcinoma cells
Method: (§1) Extracts were made by lysing the monolayers in 0.2 mL of boiling Laemlli buffer (2% sodium dodecyl sulfate, 5% beta-mercaptoethanol, 10% glycerol and 50 mM tris[hydroxymethyl]aminomethane (Tris), pH 6.8), and the lysates were heated to 100° C. for 5 minutes. Proteins in the lysate were separated by polyacrylamide gel electrophoresis and electrophoretically transferred to nitrocellulose. The membrane was washed once in 10 mM Tris, pH 7.2, 150 mM NaCl, 0.01% Azide (TNA), and blocked overnight in TNA containing 5% bovine serum albumin and 1% ovalbumin. The membrane was blotted for 2 hours with antiphosphotyrosine antibody (UBI, 1 μg/mL in blocking buffer) and then washed twice in TNA, once in TNA containing 0.05% Tween-20 detergent and 0.05% nonidet P-40 detergent and twice in TNA. […] Band intensities were determined with a Molecular Dynamics laser densitometer.
Duplicate sets of cells were treated with a range of concentrations of the designated compound to be tested as an inhibitor for 15 minutes. The cells were then stimulated with 100 ng/mL of EGF for 5 minutes and extracts made as described under the Western Blotting Procedure.

[2] = biological target: EGF receptor tyrosine kinase (Homo sapiens, UniProt P00533); assay: Tyrosine kinase assay, isolated EGF receptor tyrosine kinase; type: biochemical; conditions: read-out: EGFR Tyrosine Kinase IC50
[3] = biological target: T1, EGF receptor autophosphorylation in A431 cells; assay: Irreversibility test: recovery of EGF receptor autophosphorylation after washout; type: cell-based
Method: as §1
Duplicate sets of cells were treated with 2 μM of designated compound to be tested as an irreversible inhibitor for either 1 or 2 hours. One set of cells was then stimulated with 100 ng/mL of EGF for 5 minutes and extracts made as described under the western blotting procedure. The other set of cells were washed free of the compound with warmed serum-free media, incubated for 2 hours, washed again, incubated another 2 hours, washed again, and then incubated a further 4 hours. This set of cells was then stimulated with EGF and extracts made similar to the first set of cells.

[4] = test system: murine 16/c mammary adenocarcinoma; assay: Murine 16/c mammary adenocarcinoma model; type: in vivo, mice; conditions: doses of up to 120 mg/kg bid
Method: (§2) Female nude mice (NCr nu/nu, Taconic Farms) 18-20 g were implanted SC with tumor fragments (approximately 30 mg) in the region of the right axilla on Day 0. […] The vehicle was 6% dimethyl acetamide in 50 mM lactate buffer, pH 4.0Tumor volumes were recorded three times per week by measuring the length and width of the individual tumors and calculating the mass in milligrams according to the formula (a×b^2)/2, where a and b are the length and width of the tumor. Percent T/C (treated/control) was calculated based on the ratio of the median tumor volume of the treated tumors compared with the median tumor volume of the control tumors on specified measurement days.

[5] = test system: MCF7 human breast carcinoma; assay: MCF-7 tumor xenograft; type: in vivo, mice
Method: as §2

[6] = test system: SK-OV-3 human ovarian carcinoma; assay: SK-OV-3 tumor xenograft; type: in vivo, mice; conditions: ID dosing bid Days 10-14, 17-21, 24-28, 30 mg/kg
Method: as §2

[7] = test system: A431 human epidermoid carcinoma; assay: A431 tumor xenograft; type: in vivo, mice
Method: as §2

[8] = test system: NIH 3T3 fibroblast transfected with the h-EGF receptor; assay: EGFR tumor xenograft in nude mice; conditions: EGFR tumor, IP bid for 14 days
Method: as §2

[9] = In vivo toxicity on IP dosing bid (no tumor named)
[10] = EGF-stimulated EGFR autophosphorylation in A431 cells
[11] = A431 cells, 2 μM inhibitor, EGFR autophosphorylation
[12] = A431 cells, 2 μM inhibitor, washed, 8 hours drug-free

EGF receptor tyrosine kinase, sequence (P00533 25-1210): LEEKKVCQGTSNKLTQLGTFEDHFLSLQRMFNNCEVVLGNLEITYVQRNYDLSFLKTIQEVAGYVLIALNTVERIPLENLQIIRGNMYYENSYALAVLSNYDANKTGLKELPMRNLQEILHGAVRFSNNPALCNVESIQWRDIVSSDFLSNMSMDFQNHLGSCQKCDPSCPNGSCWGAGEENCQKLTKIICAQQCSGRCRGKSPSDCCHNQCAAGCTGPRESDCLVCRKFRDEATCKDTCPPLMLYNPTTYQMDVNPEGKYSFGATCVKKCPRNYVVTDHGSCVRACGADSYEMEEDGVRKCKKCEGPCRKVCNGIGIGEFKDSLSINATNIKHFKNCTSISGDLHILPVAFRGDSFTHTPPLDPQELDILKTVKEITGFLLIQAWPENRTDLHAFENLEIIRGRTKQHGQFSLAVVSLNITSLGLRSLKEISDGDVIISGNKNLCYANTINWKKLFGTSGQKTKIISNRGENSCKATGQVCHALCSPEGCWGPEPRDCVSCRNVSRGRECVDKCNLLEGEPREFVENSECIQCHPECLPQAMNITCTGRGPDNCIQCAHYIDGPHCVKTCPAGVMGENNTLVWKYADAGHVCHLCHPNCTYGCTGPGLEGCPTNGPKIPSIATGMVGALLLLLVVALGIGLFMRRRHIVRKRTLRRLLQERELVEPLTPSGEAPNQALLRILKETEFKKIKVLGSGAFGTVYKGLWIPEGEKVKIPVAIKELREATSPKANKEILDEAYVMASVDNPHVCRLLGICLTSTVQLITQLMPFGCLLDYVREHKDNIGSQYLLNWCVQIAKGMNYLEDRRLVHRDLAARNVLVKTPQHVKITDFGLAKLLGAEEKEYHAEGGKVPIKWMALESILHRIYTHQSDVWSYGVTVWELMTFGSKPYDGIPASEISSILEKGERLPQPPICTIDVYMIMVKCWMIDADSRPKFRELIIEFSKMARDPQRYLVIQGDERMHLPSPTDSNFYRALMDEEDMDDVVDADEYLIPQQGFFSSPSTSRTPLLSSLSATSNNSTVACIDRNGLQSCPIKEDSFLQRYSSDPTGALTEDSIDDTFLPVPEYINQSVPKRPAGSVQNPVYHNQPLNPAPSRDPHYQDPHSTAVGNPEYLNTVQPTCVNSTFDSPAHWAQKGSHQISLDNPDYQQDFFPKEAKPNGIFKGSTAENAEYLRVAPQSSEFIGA
T1 sequence (P00533 25-1210): as above

Row | IC50 [1, 10] [nM] | IC50 ([2]; isolated EGFR kinase) [nM] | melting point | % Control After 2-Hour Incubation [3, 11] [%] | % Control After 8 Hours in Drug-Free Media Incubation [3, 12] [%] | SMILES | further results
1 | 2090 | 89 | 86 to 88 °C (dec.) | 55 | 98 | C=CC(=O)N(CCCN1CCOCC1)c1ccc2c(Nc3cccc(Br)c3)ncnc2c1 [Example 4, N-[4-[(3-Bromophenyl)amino]quinazolin-7-yl]-N-[3-morpholinopropyl]acrylamide] | 
2 | 90 | 1.6 | 269.7 to 270 °C | 1 | 90 | C=CC(=O)Nc1ccc2c(Nc3cccc(C)c3)ncnc2c1 [Example 13, N-[4-(3-Methyl-phenylamino)-quinazolin-7-yl]acrylamide] | 
3 | 4.5 | 0.91 |  | 0 | 0 | C=CC(=O)Nc1ccc2ncnc(Nc3cccc(C(F)(F)F)c3)c2c1 [Example 20, N-[4-[(3-(Trifluoromethyl)phenyl)amino]quinazolin-6-yl]acrylamide] | 
4 | 27 | 1.5 | 69 to 72 °C | 0 | 0 | C=CC(=O)Nc1cc2c(Nc3cccc(C)c3)ncnc2cc1OCCCN1CCOCC1 [Example 22, N-[4-[(3-Methylphenyl)amino]-7-[3-(4-moroholino)-propoxy]quinazolin-6-yl]acrylamide] | 
5 | 8.3 | 0.48 | 221 to 223 °C (dec.) | 0 | 0 | C=CC(=O)Nc1cc2c(Nc3cccc(C)c3)ncnc2cn1 [Example 37, N-[4-(3-Methyl-phenylamino)-pyrido [3,4-d]pyrimidin-6-yl]acryl] | 
6 | 5.6 | 1.1 | 226 to 228 °C | 0 | 0 | C=CC(=O)Nc1ccc2ncnc(Nc3cccc(Br)c3)c2n1 [Example 41, N-[4-(3-Bromo-phenylamino)-pyrido [3,2-d]pyrimidin-6-yl]-acrylamide] | 
7 | 173 | 23 |  | 12 | 50 | C=CC(=O)Nc1ccc2sc3c(Nc4cccc(Br)c4)ncnc3c2c1 [Example 42, N-[4-(3-Bromo-phenylamino)-benzo[b]thieno [3,2-d]pyrimidin-8-yl]acrylamide] | 
8 | 327 | 21 | 251 to 252.4 °C | 13 | 42 | C=CC(=O)Nc1ccc2c(c1)sc1c(Nc3cccc(Br)c3)ncnc12 [Example 44, N-[4-(3-Bromo-phenylamino)-benzo[b]thieno [3,2-d]pyrimidin-7-yl]acrylamide] | 
9 | 52 | 0.81 |  | 0 | 0 | C#CC(=O)Nc1cc2c(Nc3cccc(Br)c3)ncnc2cn1 [Example 53, N-[4-(3-Bromo-phenylamino)-pyrido[3,4-d]pyrimidin-6-yl]-propynamide] | 

More lines, now with the values behind:

Row | SMILES | IC50 [1, 10] [nM] | IC50 ([2]; isolated EGFR kinase) [nM] | melting point | % Control After 2-Hour Incubation [3, 11] [%] | % Control After 8 Hours in Drug-Free Media Incubation [3, 12] [%] | further results
10 | C=CC(=O)Nc1ccc2ncnc(Nc3cccc(Br)c3)c2c1 [Example 11, N-[4-[(3-Bromophenyl)amino]quinazolin-6-yl]acrylamide] |  |  |  |  |  | activity [4]: Inactive; growth delay ([5]; IP bid Days 1-5, 8-12, 15-19, 28 mg/kg): 22.9 days; growth delay ([5]; IP bid Days 1-5, 8-12, 15-19, 47 mg/kg): 17.4 days; growth delay [6]: 1.2 days; growth delay ([7]; IP bid Days 7-11, 21-25, 28 mg/kg): 28.2 days; growth delay ([7]; PO once daily Days 7-21, 100 mg/kg): 2 days; growth delay ([7]; PO once daily Days 7-21, 200 mg/kg): 3.5 days
11 | C=CC(=O)Nc1ccc2ncnc(Nc3cccc(C)c3)c2c1 [Example 19, N-[4-[(3-methylphenyl)amino]quinazolin-6-yl]acrylamide] | 4.7 | 0.42 |  | 0 | 0 | growth delay ([8]; 48 mg/kg): 6.4 days; growth delay ([8]; 77 mg/kg): 7.9 days; growth delay ([8]; 124 mg/kg): 11.8 days; toxicity ([8]; 200 mg/kg): toxic; growth delay [6]: 1.3 days; growth delay ([7]; SC-Infusion (Alzet) Days 9-23, 12 mg/kg/day): 15 days; growth delay ([7]; SC-Infusion (Alzet) Days 9-23, 24 mg/kg/day): 14 days
12 | C=CC(=O)Nc1cc2c(Nc3cccc(Br)c3)ncnc2cc1OCCCN1CCOCC1 [Example 21, N-[4-[(3-Bromophenyl)amino]-7-[3-(4-morpholino)propoxy]quinazolin-6-yl]acrylamide] |  |  |  |  |  | toxicity ([9]; 48 mg/kg): toxic
13 | C=CC(=O)Nc1cc2c(Nc3cccc(C)c3)ncnc2cc1OCCCN1CCN(C)CC1 [Example 23, N-[4-[(3-Methylphenyl)amino]-7-[3-(4,N-methyl-1,N-piperazino)propoxy]quinazolin-6-yl]acrylamide] | 18 | 2 |  | 0 | 0 | 
14 | C=CC(=O)Nc1cc2c(Nc3cccc(Br)c3)ncnc2cc1OCCCN1CCN(C)CC1 [Example 24, N-[4-[(3-Bromophenyl)amino]-7-[3-(4,N-methyl-1,N-piperazino)propoxy]quinazolin-6-yl]acrylamide] |  |  | 105 to 107 °C |  |  | IC50 [1]: 7.9 nM; IC50 [2]: 4 nM
15 | C=CC(=O)Nc1cc2c(Nc3cccc(Br)c3)ncnc2cc1OCCCn1ccnc1 [Example 25, N-[4-[(3-Bromophenyl)amino]-7-[3-(1,N-imidazyl)propoxy]quinazolin-6-yl]acrylamide] |  |  |  |  |  | IC50 [1]: 21 nM; IC50 [2]: 3 nM; % Control After 2-Hour Incubation [3]: 0%; % Control After 8 Hours in Drug-Free Media Incubation [3]: 0%
16 | C=CC(=O)Nc1cc2c(Nc3cccc(Br)c3)ncnc2cc1OCCCCN(C)C [Example 26, N-[4-[(3-Bromophenyl)amino]-7-[4-(N,N-dimethyl-amino)butoxy]quinazolin-6-yl]acrylamide] | 3 | 1.7 | 112 to 115 °C | 0 | 0 | 
17 | C=CS(=O)(=O)Nc1cc2c(Nc3cccc(Br)c3)ncnc2cn1 [Example 40, N-[4-(3-Bromo-phenylamino)-pyrido[3,4-d]pyrimidin-6-yl]-ethenylsulfonamide] |  |  |  |  |  | toxicity ([9]; 48 and 20 mg/kg): toxic
18 | C=CC(=O)Nc1cccc2c1sc1c(Nc3cccc(Br)c3)ncnc12 [Example 43, N-[4-(3-Bromo-phenylamino)-benzo[b]thieno[3,2-d]-pyrimidin-6-yl]acrylamide] | 24 | 1.4 |  | 0 | 0 | 
19 | CC(=O)N(c1cccc(Br)c1)c1ncnc2ccc(N3C(=O)C=CC3=O)cc12 [Example 58, N-(3-Bromo-phenyl)-N-[6-(2,5-dioxo-2,5-dihydro-pyrrol-1-yl)-quinazolin-4-yl]-acetamide] | > 500 | 124 | 174 to 175 °C | 81 | 95 | 
